Assay results: patent US5521293A (Lever Brothers Company, Division of Conopco, Inc., priority 1995, dated 1996)
Where two headings read alike, the source gives them in different places.

Tests used:
[1] = Effectiveness in reducing surface tension (surface pressure at the CMC); format: physicochemical; conditions: 60° C., estimated by linear extrapolation
Description: Effectiveness of a surfactant in reducing surface tension is defined as the maximum reduction in surface tension that can be obtained regardless of the bulk phase surfactant concentration.
As mentioned before, surface tension reduction depends on the replacement of water molecules at the interface by surfactant molecules, therefore the effectiveness of a surfactant in reducing interfacial surface tension should reflect the saturated concentration of surfactant at the interface relative to that in bulk liquid phase. During this process the surface tension of water steadily decreases as bulk phase surfactant concentration increases. This will continue until the concentration reaches the critical micelle concentration (CMC), above which the surface tension remains nearly unchanged and the interface is saturated with surfactant. The surface tension at the CMC is therefore very close to the minimum interfacial tension or maximum surface pressure that the system can achieve. The surface pressure at this point, cmc, is a suitable measure of the effectiveness of a surfactant in reducing surface tension and is given as:
cmc =20+2.3 nRT(Γmax) log[CMC/C20 ]
n=1 which represents the number of ions whose surface concentration changes with the change in liquid phase surfactant concentration.
R=8.314×107 ergs/mol K (Gas Constant)
Γmax =-1/2·303RT(∂γ/∂log [Conc])T=3.85×10^-10 mole/cm^2
CMC/C20 =is the ratio of the critical micelle concentration to the bulk phase surfactant concentration necessary to reduce the surface tension of water by 20 dyn/cm.
The effectiveness of various surfactants in reducing surface tension ( cmc) were determined and are set forth below: […]

[2] = cited from earlier work
[3] = cited from earlier work; remark: listed apart in the source
[4] = Effectiveness of adsorption at the interface (surface excess concentration at surface saturation); format: physicochemical; conditions: 60° C., estimated by linear extrapolation
Description: The surface excess concentration at surface saturation (Γmax) is defined as a measure of the effectiveness of surfactant adsorption at the water/air interface and represents the maximum value to which adsorption can be obtained. Effectiveness of adsorption is related to the interfacial area occupied by the surfactant molecule. The smaller the effective cross-sectional area of a surfactant at the interface, the greater its effectiveness of adsorption. The effectiveness of adsorption is an important factor in determining surfactant properties such as detergency, foaming, wetting or emulsification. While not wishing to be bound by theory, it is believed that surfactants that absorb effectively at the interface tend have tightly packed coherent interfacial films and often provide better surfactant benefits than those with loosely packed noncoherent films. The effectiveness of adsorption of C8 /C10 oxypropyl D-gluconarnide was determined using the Gibbs equation given as:
Γmax =-1/2.303RT(∂γ/∂log[Conc])T
(∂γ/∂log[Conc)T =-24.574971 ergs/cm^2 (which is equivalent to the
slope of a plot of γ versus log[Conc]) R=8.3 14×10^7 ergs/mol K (Gas Constant)
The surface excess concentration at surface saturation (Γmax) of various surfactants were determined and are set forth below: […]

[5] = Area per molecule at the interface; format: physicochemical; conditions: 60° C., estimated by linear extrapolation
Description: The area per molecule of a surfactant at the water/air interface provides information on the degree of packing and the orientation of the adsorbed surfactant molecule. While not wishing to be bound by theory, it is believed that surfactants that have small area per molecule values tend to pack more closely at the interface than those with large area per molecule values. From the surface excess concentration at surface saturation (Γmax), the area per molecule (am) of C8 /C10 oxypropyl D-gluconamide was determined and is given by:
am =1×10^16 /Nav Γmax
Γmax =-1/2·303RT(∂γ/∂log[Conc])T
NAV =6.0221×10^23 per gram mole (Avogadro's Number)
The area per molecule (am) of several surfactants were-determined and are set forth below: […]

[6] = cited from earlier work; remark: listed apart in the source
[7] = Krafft point of aqueous dispersion of aldonamide; format: physicochemical; conditions: for Krafft Point (0.1%): 0.1% in water by weight; for Krafft Point (1.0%): 1.0% in water by weight
Description: The temperature at and above which surfactants begin to form micelles instead of precipitates is referred to as the Krafft point (Tk) and at this temperature the solubility of a surfactant becomes equal to its CMC (numerical value at which micelles are formed).
The Krafft point was measured by preparing 650 ml of a 0.1% or 1.0% dispersion of aldonamide in water by weight. If the surfactant was soluble at room temperature, the solution was slowly cooled to 0° C. […] (less than zero). If it precipitated out of solution, the temperature at which precipitation occurs was taken as the Krafft point.
If the surfactant was insoluble at :room temperature, the dispersion was slowly heated until the solution became homogeneous. It was then slowly cooled until precipitation occurred. The temperature at which the surfactant precipitates out of solution upon cooling was taken as the Krafft point.

[8] = Critical micelle concentration (Wilhelmy plate method); format: physicochemical; conditions: 60° C.
Description: The critical micelle concentration (CMC) is defined as the concentration at which a surfactant forms micelles in aqueous solution. Micellization is the preferred interfacial phenomena, since certain surfactant benefits such as detergency (the solubilization of soils), foaming, wetting or emulsification depend on the formation of these aggregates in solution.
The CMC value of C8 /C10 oxypropyl D-gluconamide was determined by plotting surface tension as a function of log(concentration) and extrapolating linear points to obtain an intersection point. The concentration at this point was taken as the CMC. The technique used was the Wilhelmy plate method and the instrument used was a Lauda Auto-Tensiometer. While wishing not to be bound to theory, it is believed that surfactants with low CMC values form micelles more readily at lower concentrations than those with high CMC values.
The critical micelle concentration (CMC) value of C8 /C10 oxypropyl D-gluconamide (molecular weight=375.02 g/mole, 65.9% C8, 34.1% C10) was determined and is set forth below: […]

[9] = Water solubility; format: physicochemical; conditions: in words
[10] = Ross-Miles foam height; format: physicochemical; design: key: X: low water solubility. foam height cannot be measured; conditions: Examples 82-83
Description: (§1) Since most of the foaming data on surfactants is typically obtained by the Ross-Miles Foam Height Assay (Ross, J. and Miles, G. D. Am Soc. for Testing Material Method D1173-63 Philadelphia, Pa. (1953); Oil & Soap (1958) 62:1260) the foaming ability of these surfactants were acquired using this method.
(§2) In the Ross-Miles method, 200 mL of a surfactant solution contained in a pipette of specified dimensions with a 2.9-mm-i.d. orifice is allowed to fall 90 cm onto 50 mL of the same solution contained in a cylindrical vessel maintained at a given temperature by means of a water jacket. The height of the foam produced in the cylindrical vessel is read immediately after all the solution has run out of the pipette and then again after a given amount of time.
(§3) Using this method, the foam production (initial foam height in mm) and foam stability (final foam height after 10 minutes in mm) were measured at 0.1% aldonamide concentration, 40° C. and 0 ppm (parts per million) hardness. Aldonamides that were not soluble at 40° C. were measured at about 5°-10° C. above their Krafft points.

[11] = Ross-Miles foam height; format: physicochemical; design: key: X: low water solubility, foam height cannot be measured; conditions: Example 84; for Foam Height Final (symbol): after 10 minutes
Description: as §1, §2, §3

[12] = listed as Dodecyl D-Gluconamide
[13] = listed as dodecyl D-gluconamide

surface pressure at the CMC (cmc) [1]	surface excess concentration at surface saturation (Γmax) [4]	area per molecule (am) [5]	Compound	surface pressure at the CMC (cmc) ([2]; 25° C.)	surface pressure at the CMC (cmc) ([2]; 40° C.)	area per molecule (am) ([3]; 25° C.)	area per molecule (am) ([3]; 40° C.)	surface excess concentration at surface saturation (Γmax) ([6]; 25° C.)	surface excess concentration at surface saturation (Γmax) ([6]; 40° C.)	other results
36.3 dyn/cm	2.40 × 10^-10 mole/cm^2	69.0 Å^2	CCCCCCCCCCCCOCCOCCOCCOCCOCCOCCOCCOCCO [Dodecylocta(oxyethylene) Ether]	37.2 dyn/cm	37.3 dyn/cm	66.0 Å^2	67.4 Å^2	2.52 × 10^-10 mole/cm^2	2.46 × 10^-10 mole/cm^2	
40.7 dyn/cm	3.16 × 10^-10 mole/cm^2	52.3 Å^2	CCCCCCCCCCCCOCCOCCOCCOCCOCCO [Dodecylpenta(oxyethylene) Ether]	41.5 dyn/cm	41.2 dyn/cm	50.1 Å^2	50.6 Å^2	3.31 × 10^-10 mole/cm^2	3.28 × 10^-10 mole/cm^2	
40.7 dyn/cm	3.01 × 10^-10 mole/cm^2	53.3 Å^2	CCCCCCCCCCCCOCCOCCOCCOCCO [Dodecyltetra(oxyethylene) Ether]	43.4 dyn/cm	42.0 dyn/cm	45.7 Å^2	48.7 Å^2	3.63 × 10^-10 mole/cm^2	3.41 × 10^-10 mole/cm^2	
41.4 dyn/cm	3.83 × 10^-10 mole/cm^2	45.4 Å^2	CCCCCCCCCCCCOCCOCCOCCO [Dodecyltri(oxyethylene) Ether]	44.1 dyn/cm	43.1 dyn/cm	41.7 Å^2	42.5 Å^2	3.98 × 10^-10 mole/cm^2	3.90 × 10^-10 mole/cm^2	
			CCCCCCCCCCCCNC(=O)[C@H](O)[C@@H](O)[C@H](O)[C@H](O)CO [H, Dodecyl D-Gluconamide]							Krafft Point (0.1%) [7]: 91 °C; CMC / micelle formation (in words) [8, 12]: None; CMC / micelle formation (in words) [8, 13]: can not form micelles; water solubility [9, 12]: Insoluble; water solubility [9, 13]: insoluble in water; Foam Height Final (symbol) ([10]; after 10 minutes): X; Foam Height Initial (symbol) ([10]; initial): X
			CCCCCCCCCCCCNC(=O)[C@H](O)[C@H](O)[C@@H](O)[C@@H](O)CO [L, C12 L-Mannonamide]							Krafft Point (0.1%) [7]: > 100 °C; water solubility [9]: Insoluble
			CCCCCCCCCCCCCCCNC(=O)[C@H](O)[C@@H](O)[C@H](O[C@@H]1O[C@H](CO)[C@H](O)[C@H](O)[C@H]1O)[C@H](O)CO [SS, C15 D-Lactobionamide]							Foam Height Final (symbol) [11]: X; Foam Height Initial (symbol) [11]: X; Krafft Point (1.0%) [7]: 84 °C
			CCCCCCCCCCCCCCCCCCNC(=O)[C@H](O)[C@@H](O)[C@H](O[C@@H]1O[C@H](CO)[C@H](O)[C@H](O)[C@H]1O)[C@H](O)CO [UU, C18 D-Lactobionamide]							Foam Height Final (symbol) [11]: X; Foam Height Initial (symbol) [11]: X; Krafft Point (1.0%) [7]: 82 °C

Compound	surface pressure at the CMC (cmc) [1]	surface excess concentration at surface saturation (Γmax) [4]	area per molecule (am) [5]	surface pressure at the CMC (cmc) ([2]; 25° C.)	surface pressure at the CMC (cmc) ([2]; 40° C.)	area per molecule (am) ([3]; 25° C.)	area per molecule (am) ([3]; 40° C.)	surface excess concentration at surface saturation (Γmax) ([6]; 25° C.)	surface excess concentration at surface saturation (Γmax) ([6]; 40° C.)	other results
CCCCCCCCCCCCOCCOCCOCCOCCOCCOCCOCCO [Dodecylhepta(oxyethylene) Ether]	36.8 dyn/cm	2.71 × 10^-10 mole/cm^2	61.0 Å^2	38.3 dyn/cm	38.5 dyn/cm	57.3 Å^2	59.9 Å^2	2.90 × 10^-10 mole/cm^2	2.77 × 10^-10 mole/cm^2	
